What is called IC90 is the concentration needed for an effect of 90%.

For 29 molecules, IC90 results are on record in patent publication US20230017532A1 (Hoffmann-La Roche Inc., priority 2018, published 2023).

The assay deals with Acinetobacter baumannii ATCC17978. As to the kind of experiment: Antimicrobial susceptibility testing: 90% growth inhibitory concentration (IC90) determination, Iso-Sensitest broth, OD 600 nm. In kind it is cell-based. The conditions noted are these: 90% growth inhibitory concentration, Acinetobacter baumannii ATCC17978, Iso-Sensitest broth, OD 600 nm over 16 h, read-out: ATCC 17978 IC90. A digest of the protocol:
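Growth of bacteria (~5×10^5 CFU/ml, Iso-Sensitest medium, 35±2 °C) was followed by OD at 600 nm at 20-min intervals over 16 h against a 10-point twofold compound series (e.g. 50–0.097 μM final). Concentration giving 90% inhibition in log phase was reported.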

Where [1] appears, read: Acinetobacter baumannii, ATCC17978, 16 h.

SMILES strings stand for the structures. Counter-ions that a name gives are not always drawn. Like-named read-outs stand apart in the source and are kept apart here.

In the case of `Cc1cc(Nc2nccn3c(-c4ccc(OC(F)F)cc4)cnc23)ccc1C(=O)NCCOCCN=C(N(C)C)N(C)C` [Example 79, N-[2-[2-[bis (dimethylamino)methylidene-amino]ethoxy]ethyl]-4-[[3-[4-(difluoro-methoxy)phenyl]imidazo [1,2-a]pyrazin-8-yl]amino]-2-methylbenzamide], the IC90 under setting [1] was found to be 1.4 µM. For `Cc1cc(Nc2nccn3c(-c4ccc(Cl)c(F)c4F)cnc23)ccc1C(=O)NCCNCCO` [Example 80, 4-[[3-(4-chloro-2,3-difluorophenyl)imidazo[1,2-a]pyrazin-8-yl]amino]-N-[2-(2-hydroxy-ethylamino)ethyl]-2-methyl-benzamide; hydrochloride], the IC90 under setting [1] is 5.1 µM. Take `Cc1cc(Nc2nccn3c(-c4ccc(OC(F)F)cc4)cnc23)ccc1C(=O)NCCOCCN1CCC(O)CC1` [Example 81, 4-[[3-[4-(difluoromethoxy)phenyl]imidazo [1,2-a]pyrazin-8-yl]amino]-N-[2-[2-(4-hydroxy-piperidin-1-yl)ethoxy]ethyl]-2-methylbenzamide]: the IC90 under setting [1] was 0.34 µM. The same measure, in the same setting: in the case of `Cc1cc(Nc2nccn3c(-c4ccc(OC(F)F)cc4)cnc23)ccc1C(=O)NCCOCCN1CC[C@H]2COC[C@@H]2C1` [Example 82, N-[2-[2-[(3aS, 7aR)-3,3a,4,6,7,7a-hexahydro-1H-furo[3,4-c]pyridin-5-yl]ethoxy]ethyl]-4-[[3-[4-(difluoromethoxy)phenyl]imidazo [1,2-a]pyrazin-8-yl]amino]-2-methylbenzamide] it was 0.47 µM; in that of `Cc1cc(Nc2nccn3c(-c4ccc(OC(F)F)cc4)cnc23)ccc1C(=O)NCCOCCN1CCC2(COC2)C1` [Example 83, 4-[[3-[4-(difluoromethoxy)phenyl]imidazo [1,2-a]pyrazin-8-yl]amino]-2-methyl-N-[2-[2-(2-oxa-7-azaspiro [3.4]octan-7-yl)ethoxy]ethyl]benzamide], 0.64 µM. For the molecule `CCc1cc(Nc2nccn3c(-c4ccc(OCC#N)c(F)c4F)cnc23)ccc1C(=O)NCCOCCN` [Example 85, N-[2-(2-aminoethoxy)ethyl]-4-[[3-[4-(cyano-methoxy)-2,3-difluorophenyl]imidazo[1,2-a]pyrazin-8-yl]amino]-2-ethyl-benzamide;2,2,2-trifluoroacetic acid], the IC90 came to 0.055 µM. Take `CCc1cc(Nc2nccn3c(-c4ccc(OC)c(F)c4F)cnc23)ccc1C(=O)NCCOCCN` [Example 86]: the IC90 under setting [1] turned out to be 0.05 µM. With `CCc1cc(Nc2nccn3c(-c4ccc(Cl)c(F)c4F)cnc23)ccc1C(=O)NCCOCCN` [Example 87, N-[2-(2-aminoethoxy)ethyl]-4-[[3-(4-chloro-2,3-difluoro-phenyl)imidazo [1,2-a]pyrazin-8-yl]amino]-2-ethylbenzamide], the IC90 is 0.18 µM. As to `Cc1cc(Nc2nccn3c(-c4ccc(Cl)c(F)c4F)cnc23)ccc1C(=O)NCCOCCN` [Example 88, N-[2-(2-aminoethoxy)ethyl]-4-[[3-(4-chloro-2,3-difluorophenyl)imidazo[1,2-a]pyrazin-8-yl]amino]-2-methylbenzamide; hydrochloride], the IC90 under setting [1] was found to be 0.21 µM.

For `CCc1cc(Nc2nccn3c(-c4ccc(OC)cc4)cnc23)ccc1C(=O)NCCOCCNCCO` [Example 89, 2-ethyl-N-[2-[2-(2-hydroxyethyl-amino)ethoxy]ethyl]-4-[[3-(4-methoxyphenyl)imidazo[1,2-a]pyrazin-8-yl]amino]benzamide], the IC90 under setting [1] is 0.22 µM. Regarding `Cc1cc(Nc2nccn3c(-c4ccc(OC(F)F)cc4)cnc23)ccc1C(=O)NCCOCCN` [Example 90, N-[2-(2-aminoethoxy)ethyl]-4-[[3-[4-(difluoro-methoxy)phenyl]imidazo[1,2-a]pyrazin-8-yl]amino]-2-methylbenzamide; hydrochloride], under setting [1], the IC90 is 0.23 µM. Same read-out and setting: in the case of `Cc1cc(Nc2nccn3c(-c4ccc(OC(F)F)cc4)cnc23)ccc1C(=O)NCCOCCN1CCC2(CCOCC2)C1` [Example 91, 4-[[3-[4-(difluoromethoxy)phenyl]imidazo [1,2-a]pyrazin-8-yl]amino]-2-methyl-N-[2-[2-(8-oxa-2-azaspiro[4.5]decan-2-yl)ethoxy]ethyl] benzamide] it was 0.65 µM; in that of `CCc1cc(Nc2nccn3c(-c4ccc(Cl)c(F)c4F)cnc23)ccc1C(=O)NCCOCCNCCO` [Example 92, 4-[[3-(4-chloro-2,3-difluoro-phenyl)imidazo [1,2-a]pyrazin-8-yl]amino]-2-ethyl-N-[2-[2-(2-hydroxyethyl-amino)ethoxy]ethyl]benzamide], 0.26 µM; in that of `COCC#CCOc1ccc(-c2cnc3c(Nc4ccc(C(=O)NCCOCCN)c(C)c4)nccn23)cc1` [Example 93, N-[2-(2-aminoethoxy)ethyl]-4-[[3-[4-(4-methoxy-but-2-ynoxy)phenyl]imidazo[1,2-a]pyrazin-8-yl]amino]-2-methylbenzamide; formic acid], 0.28 µM. The same measure, in the same setting: in the case of `Cc1cc(Nc2nccn3c(-c4ccc(OC(F)F)cc4)cnc23)ccc1C(=O)NCCOCCNC=O` [Example 94, 4-[[3-[4-(difluoromethoxy)phenyl]imidazo [1,2-a]pyrazin-8-yl]amino]-N-[2-(2-formamidoethoxy)ethyl]-2-methylbenzamide] it was 0.28 µM.

For `Cc1cc(Nc2nccn3c(-c4ccc(OC(F)F)cc4)cnc23)ccc1C(=O)NCCOCCN1CCCCC1` [Example 95, 4-[[3-[4-(difluoromethoxy)phenyl]imidazo [1,2-a]pyrazin-8-yl]amino]-2-methyl-N-[2-(2-piperidin-1-ylethoxy)ethyl] benzamide], under setting [1], the IC90 was found to be 0.28 µM. As to `Cc1cc(Nc2nccn3c(-c4ccc(OC(F)F)cc4)cnc23)ccc1C(=O)NCCOCCN(C)C` [Example 96, 4-[[3-[4-(difluoromethoxy)phenyl]imidazo [1,2-a]pyrazin-8-yl]amino]-N-[2-[2-(dimethylamino)ethoxy]ethyl]-2-methyl-benzamide], the IC90 under setting [1] stood at 0.31 µM. Consider `Cc1cc(Nc2nccn3c(-c4ccc(OC(F)F)c(F)c4)cnc23)ccc1C(=O)NCCOCCN` [Example 97, N-[2-(2-aminoethoxy)ethyl]-4-[[3-[4-(difluoro-methoxy)-3-fluorophenyl]imidazo[1,2-a]pyrazin-8-yl]amino]-2-methylbenzamide; hydrochloride], for which the IC90 under setting [1] is 0.37 µM. Consider `CC(=O)NCCOCCNC(=O)c1ccc(Nc2nccn3c(-c4ccc(OC(F)F)cc4)cnc23)cc1C` [Example 98], for which the IC90 under setting [1] worked out at 0.42 µM. On the same count and under the same terms, next, `Cc1cc(Nc2nccn3c(-c4ccc(Cl)cc4)cnc23)ccc1C(=O)NCCOCCN` [Example 99, N-[2-(2-aminoethoxy)ethyl]-4-[[3-(4-chlorophenyl)imidazo[1,2-a]pyrazin-8-yl]amino]-2-methylbenzamide; hydrochloride]: 0.44 µM; `Cc1cc(Nc2nccn3c(-c4ccc(OCC#CCOCCN)cc4)cnc23)ccc1C(=O)NCCOCCN` [Example 100, 4-[[3-[4-[4-(2-aminoethoxy)but-2-ynoxy]phenyl]imidazo[1,2-a]pyrazin-8-yl]amino]-N-[2-(2-aminoethoxy)ethyl]-2-methylbenzamide; formic acid]: 0.44 µM.

`Cc1cc(Nc2nccn3c(-c4ccc(OC(F)F)cc4)cnc23)ccc1C(=O)NCCNCCN` [Example 101, N-[2-(2-aminoethylamino)ethyl]-4-[[3-[4-(difluoromethoxy)phenyl]imidazo [1,2-a]pyrazin-8-yl]amino]-2-methylbenzamide; hydrochloride]: under setting [1], the IC90 was 0.44 µM. In the case of `Cc1cc(Nc2nccn3c(-c4ccc(OC(F)F)cc4)cnc23)ccc1C(=O)NCCOCCNS(C)(=O)=O` [Example 102, 4-[[3-[4-(difluoromethoxy)phenyl]imidazo [1,2-a]pyrazin-8-yl]amino]-N-[2-[2-(methane-sulfonamido)ethoxy]ethyl]-2-methylbenzamide], the IC90 under setting [1] stood at 0.46 µM. With `COc1ccc(-c2cnc3c(Nc4ccc(C(=O)NCCNCCN)c(C)c4)nccn23)cc1` [Example 104, N-[2-(2-aminoethylamino)ethyl]-4-[[3-(4-methoxyphenyl)imidazo[1,2-a]pyrazin-8-yl]amino]-2-methylbenzamide; hydrochloride], the IC90 under setting [1] turned out to be 0.48 µM. Same read-out and setting: in the case of `COc1ccc(-c2cnc3c(Nc4ccc(C(=O)NCCOCC(=O)N5CCNCC5)c(C)c4)nccn23)cc1F` [Example 105, 4-[[3-(3-fluoro-4-methoxyphenyl)imidazo[1,2-a]pyrazin-8-yl]amino]-2-methyl-N-[2-(2-oxo-2-piperazin-1-ylethoxy)ethyl] benzamide] it was 0.48 µM; in that of `COc1ccc(-c2cnc3c(Nc4ccc(C(=O)NCCOCCN5CCOCC5)c(C)c4)nccn23)cc1` [Example 106, 4-[[3-(4-methoxyphenyl)imidazo[1,2-a]pyrazin-8-yl]amino]-2-methyl-N-[2-(2-morpholin-4-ylethoxy)ethyl] benzamide], 0.48 µM.

Turning to `COc1ccc(-c2cnc3c(Nc4ccc(C(=O)NCCOCCn5ccnn5)c(C)c4)nccn23)cc1` [Example 107, 4-[[3-(4-methoxyphenyl)imidazo[1,2-a]pyrazin-8-yl]amino]-2-methyl-N-[2-[2-(triazol-1-yl)ethoxy]ethyl] benzamide], the IC90 under setting [1] came to 0.5 µM. With `COc1ccc(-c2cnc3c(Nc4ccc(C(=O)N(C)CCOCCN5CC6(COC6)C5)c(C)c4)nccn23)cc1F` [Example 108, 4-[[3-(3-fluoro-4-methoxyphenyl)imidazo[1,2-a]pyrazin-8-yl]amino]-N,2-dimethyl-N-[2-[2-(2-oxa-6-azaspiro [3.3]heptan-6-yl)ethoxy]ethyl] benzamide], the IC90 under setting [1] was found to be 0.52 µM. Turning to `COc1ccc(-c2cnc3c(Nc4ccc(C(=O)NCCOCCNS(C)(=O)=O)c(C)c4)nccn23)cc1` [Example 109, N-[2-[2-(methane-sulfonamido)ethoxy]ethyl]-4-[[3-(4-methoxyphenyl)imidazo[1,2-a]pyrazin-8-yl]amino]-2-methylbenzamide], the IC90 under setting [1] amounted to 0.53 µM.
